# Results as given in US6492434B1, “Methods for inhibiting skin ulceration by use of cyanoacrylate adhesives” (Flowers PArk Ltd., priority 1995, dated 2002).
# Tested on: decubitus ulcers
# Test: Evaluation of n-butyl cyanoacrylate adhesive on inhibition of decubitus ulcers in 17 adult nursing home patients
# Format: in vivo, human
# Method: An evaluation of the effect of n-butyl cyanoacrylate adhesive on the inhibition of decubitus ulcers in 17 adult patients located in nine different nursing homes was conducted. In this example, 17 patients were selected based on a history of recurring decubitus ulcer formation or, based on medical evaluation, were deemed to be at high risk of developing decubitus ulcers. A prophylactic treatment regimen was then employed on these patients which regimen consisted of using conventional pressure ulcer preventative practices primarily involving periodic rotation of the patient as well as application of an n-butyl cyanoacrylate adhesive composition onto the intact skin areas which appeared likely to develop pressure ulcers by virtue of irritation and reddening of the skin or unbroken blister formation which is classified as a stage I decubitus ulcer or by application of the n-butyl cyanoacrylate composition onto intact skin adjacent to type II decubitus ulcers. Application of n-butyl cyanoacrylate consisted of application of about 1-5 drops of the n-butyl cyanoacrylate composition onto the surface skin area prone to ulceration wherein each drop corresponds to about 0.03 ml of cyanoacrylate.
# The specific amount of n-butyl cyanoacrylate adhesive and point of application of the adhesive for each patient are set forth in the following Table I:
# After application, the cyanoacrylate adhesive was allowed to form a polymeric film and, on average, reapplication of the adhesive was conducted every 24 hours until the evaluation was completed.
structure (smiles),measurement,setting,value
"C=C(C#N)C(=O)OCCCC [n-butyl cyanoacrylate adhesive, n-butyl-2-cyanoacrylate]",expansion of stage II decubitus ulcer to adjacent skin areas,"all patients treated in skin areas adjacent to stage II decubitus ulcer, plus conventional preventative practices",minimal expansion of the ulcer
same,progression to stage II decubitus ulcer formation (broken skin),"all patients with redness/irritation or blistering (stage I) of intact skin, plus conventional pressure ulcer preventative practices",did not progress to stage II decubitus ulcer formation
same,RESULT,"patient 1, heel, redness 3 cm, 2 drops, reapplied about every 24 h, plus conventional preventative practices",NO BREAKDOWN OF SKIN ON HEEL
same,RESULT,"patient 2, heel, redness 3 cm, 2 drops, reapplied about every 24 h, plus conventional practices",LESS PERSPIRATION AND NO IRRITATION
same,RESULT,"patient 3, heels (2), blister (Stage I) 3-4 cm, 2 drops, reapplied about every 24 h, plus conventional practices",NO BREAKDOWN OF BLISTER TO STAGE II
same,RESULT,"patient 4, heels (2) and elbows (2), redness 3-5 cm, 2 drops, reapplied about every 24 h, plus conventional practices",NO SKIN BREAKDOWN ON HEELS OR ELBOWS
same,RESULT,"patient 5, cheek, redness ½-3 in, 2 drops, reapplied about every 24 h, plus conventional practices",NO IRRITATION DEVELOPED
same,RESULT,"patient 6, lower leg, bruise 2-3 in, 4-5 drops, reapplied about every 24 h, plus conventional practices, listed as N-BUTYL CYANOACRYLATE ADHESIVES",NO SKIN BREAKDOWN
same,RESULT,"patient 7, shoulder, bony prominence 3-4 cm, 3-4 drops, reapplied about every 24 h, plus conventional practices, listed as N-BUTYL CYANOACRYLATE ADHESIVES",SKIN DID NOT BREAKDOWN
same,RESULT,"patient 8, hip, bony prominence 3-4 cm, 3-4 drops, reapplied about every 24 h, plus conventional practices",NO SKIN BREAKDOWN
same,RESULT,"patient 9, heels (2), redness 5 cm, 1 drop, reapplied about every 24 h, plus conventional practices",NO IRRITATION/REDDENING LEFT
same,RESULT,"patient 10, hip, blister (Stage I) 3-4 cm, 2 drops, treatment stopped",WARMING SENSATION UPON APPLICATION -
same,RESULT,"patient 11, top of foot, redness 2-5 cm, 1 drop, reapplied about every 24 h, plus conventional practices",NO IRRITATION/REDDENlNG LEFT
same,RESULT,"patient 12, heel, redness (scabbed over - healed stage II) 6-8 cm, 3 drops, reapplied about every 24 h, plus conventional practices",REDNESS HEALED UP
same,RESULT,"patient 13, knees & heels, redness 2.5 cm, 3 drops, patient passed away due to other conditions",IRRITATION IMPROVED BUT PATIENT
same,RESULT,"patient 14, heel, skin redness around Stage II ulcer 2.5 cm, 3 drops, reapplied about every 24 h, plus conventional practices",NO IRRITATION EVIDENT - HEELS ALMOST HEALED
same,RESULT,"patient 15, heels (2), redness 2.5 cm, 3 drops, reapplied about every 24 h, plus conventional practices","PATIENT'S HEELS LOOK BETTER,"
same,RESULT,"patient 16, hip, redness (healed Stage II ulcer) 2 cm, 2-3 drops, reapplied about every 24 h, plus conventional practices","NO FURTHER BREAKDOWN, REDDENING STILL"
